Biological target: recombinant human MGAT2 (Homo sapiens (Human), UniProt Q3SYC2)
Test: Measurement of human MGAT2 inhibitory activity
Format: biochemical
Conditions: read-out: IC50 (concentration exhibiting 50% enzyme inhibition), Table 53
In short: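 RapidFire ESI-MS read-out of the diolein/diolein-d5 peak ratio gave % inhibition, with no-enzyme and full-enzyme wells as 100% and 0%. Reactions ran 1 h at room temperature at pH 7.4 (phosphate, 2 mmol/L DTT), using Flag-tagged human MGAT2 membranes from Sf9 cells and a substrate solution of 30 μmol/L 2-oleoylglycerol and 10 μmol/L oleoyl-CoA.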

recombinant human MGAT2, sequence (Q3SYC2 whole entry): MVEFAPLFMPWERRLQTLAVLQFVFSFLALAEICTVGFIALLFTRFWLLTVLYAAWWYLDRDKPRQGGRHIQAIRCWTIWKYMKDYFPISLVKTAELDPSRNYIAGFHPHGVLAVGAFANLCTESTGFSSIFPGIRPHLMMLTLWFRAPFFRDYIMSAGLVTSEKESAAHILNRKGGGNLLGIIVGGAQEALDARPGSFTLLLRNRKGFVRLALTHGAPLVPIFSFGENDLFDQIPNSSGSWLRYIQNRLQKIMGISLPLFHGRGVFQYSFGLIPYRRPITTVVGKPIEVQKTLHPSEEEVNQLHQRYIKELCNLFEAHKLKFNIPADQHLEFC

Row | Compound | IC50
1 | N#Cc1ccc(-n2nc3c(c2C(=O)NCC2(C#N)CC2)C(=O)N[C@@]2(CCc4cc(OCC(F)(F)F)ccc42)C3)nc1 [II-190] | 6.35 nM
2 | N#Cc1ccc(-n2nc3c(c2C(=O)NCC2(C(F)(F)F)CC2)C(=O)N[C@@]2(CCc4cc(OCC(F)(F)F)ccc42)C3)nc1 [II-191] | 91.2 nM
3 | CCO[C@H]1C[C@H](n2nc3c(c2NC(=O)CS(C)(=O)=O)C(=O)N[C@@]2(CCc4cc(OCC(F)(F)F)ccc42)C3)C1 [II-193] | 33.7 nM
4 | Cc1ccc(-n2nc3c(c2C(=O)NCCC(F)(F)F)C(=O)N[C@@]2(CCc4cc(OCC(F)(F)F)ccc42)C3)nc1 [II-195] | 29.8 nM
5 | Cc1ccc(-n2nc3c(c2C(=O)NCC(N)=O)C(=O)N[C@@]2(CCc4cc(OCC(F)(F)F)ccc42)C3)nc1 [II-196] | 18.7 nM
6 | Cc1ccc(-n2nc3c(c2C(=O)NCC#N)C(=O)N[C@@]2(CCc4cc(OCC(F)(F)F)ccc42)C3)nc1 [II-197] | 6.79 nM
7 | Cc1ccc(-n2nc3c(c2C(=O)NCCS(C)(=O)=O)C(=O)N[C@@]2(CCc4cc(OCC(F)(F)F)ccc42)C3)nc1 [II-199] | 73.6 nM
8 | Cc1ccc(-n2nc3c(c2C(=O)NCCS(N)(=O)=O)C(=O)N[C@@]2(CCOc4cc(OCC(F)(F)F)ccc42)C3)nc1 [II-204] | 22.3 nM
9 | CCOc1ccc([C@]2(C)Cc3nn(-c4ccc(C)cn4)c(NC(=O)CS(C)(=O)=O)c3C(=O)N2)c(F)c1 [II-207] | 5.86 nM
10 | Cc1ccc(-n2nc3c(c2C(=O)NCCS(N)(=O)=O)C(=O)N[C@@]2(CCc4cc(OCC(F)(F)F)ccc42)C3)cc1F [II-209] | 95.3 nM
11 | Cc1ccc(-n2nc3c(c2C(=O)NS(=O)(=O)c2ccccc2)C(=O)N[C@@]2(CCc4cc(OCC(F)(F)F)ccc42)C3)nc1 [II-210] | 89.2 nM
12 | COCCS(=O)(=O)NC(=O)c1c2c(nn1-c1ccc(C)cn1)C[C@]1(CCc3cc(OCC(F)(F)F)ccc31)NC2=O [II-211] | 33.1 nM
13 | Cc1ccc(-n2nc3c(c2C(=O)NS(=O)(=O)CCC(F)(F)F)C(=O)N[C@@]2(CCc4cc(OCC(F)(F)F)ccc42)C3)nc1 [II-212] | 46.7 nM
14 | Cc1ccc(-n2nc3c(c2C(=O)NS(=O)(=O)Cc2ccccc2)C(=O)N[C@@]2(CCc4cc(OCC(F)(F)F)ccc42)C3)nc1 [II-213] | 59.5 nM
15 | CS(=O)(=O)NC(=O)c1c2c(nn1-c1ccc(C#N)cn1)C[C@]1(CCc3cc(OCC(F)(F)F)ccc31)NC2=O [II-214] | 26.3 nM
16 | N#Cc1ccc(-n2nc3c(c2C(=O)NS(=O)(=O)c2ccccc2)C(=O)N[C@@]2(CCc4cc(OCC(F)(F)F)ccc42)C3)nc1 [II-215] | 77 nM
17 | COCCS(=O)(=O)NC(=O)c1c2c(nn1-c1ccc(C#N)cn1)C[C@]1(CCc3cc(OCC(F)(F)F)ccc31)NC2=O [II-216] | 428 nM
18 | N#Cc1ccc(-n2nc3c(c2C(=O)NS(=O)(=O)CCC(F)(F)F)C(=O)N[C@@]2(CCc4cc(OCC(F)(F)F)ccc42)C3)nc1 [II-217] | 68.9 nM
19 | N#Cc1ccc(-n2nc3c(c2C(=O)NS(=O)(=O)Cc2ccccc2)C(=O)N[C@@]2(CCc4cc(OCC(F)(F)F)ccc42)C3)nc1 [II-218] | 67.8 nM
20 | Cc1ccc(-n2nc3c(c2C(=O)NCC#N)C(=O)N[C@@]2(CCc4cc(OCC(F)(F)F)ccc42)C3)cc1F [II-219] | 82.5 nM
21 | Cc1ccc(-n2nc3c(c2C(=O)NCC2(CO)CC2)C(=O)N[C@@]2(CCc4cc(OCC(F)(F)F)ccc42)C3)cc1F [II-220] | 8.19 nM

Row | Compound | IC50
22 | Cc1ccc(-n2nc3c(c2C(=O)NCC2(O)CC2)C(=O)N[C@@]2(CCc4cc(OCC(F)(F)F)ccc42)C3)cc1F [II-221] | 6.87 nM
23 | Cc1ccc(-n2nc3c(c2C(=O)NCC2(C#N)CC2)C(=O)N[C@@]2(CCc4cc(OCC(F)(F)F)ccc42)C3)cc1F [II-222] | 53.4 nM
24 | Cc1ccc(-n2nc3c(c2C(=O)NS(C)(=O)=O)C(=O)N[C@@]2(CCc4cc(OCC(F)(F)F)ccc42)C3)cc1F [II-223] | 52.4 nM
25 | Cc1ccc(-n2nc3c(c2C(=O)NS(=O)(=O)C2CC2)C(=O)N[C@@]2(CCc4cc(OCC(F)(F)F)ccc42)C3)cc1F [II-226] | 15.8 nM
26 | Cc1ccc(-n2nc3c(c2C(=O)NCC(F)(F)F)C(=O)N[C@@]2(CCOc4cc(OCC(F)(F)F)ccc42)C3)nc1 [II-227] | 96.4 nM
27 | Cc1ccc(-n2nc3c(c2C(=O)NCC#N)C(=O)N[C@@]2(CCOc4cc(OCC(F)(F)F)ccc42)C3)nc1 [II-228] | 37 nM
28 | Cc1ccc(-n2nc3c(c2C(=O)NCC(N)=O)C(=O)N[C@@]2(CCOc4cc(OCC(F)(F)F)ccc42)C3)nc1 [II-229] | 64.8 nM
29 | Cc1ccc(-n2nc3c(c2C(=O)NCC2(O)CC2)C(=O)N[C@@]2(CCOc4cc(OCC(F)(F)F)ccc42)C3)nc1 [II-230] | 14.2 nM
30 | Cc1ccc(-n2nc3c(c2C(=O)NCC2(C#N)CC2)C(=O)N[C@@]2(CCOc4cc(OCC(F)(F)F)ccc42)C3)nc1 [II-231] | 97.8 nM
31 | Cc1ccc(-n2nc3c(c2C(=O)NCC2(C(F)F)CC2)C(=O)N[C@@]2(CCOc4cc(OCC(F)(F)F)ccc42)C3)nc1 [II-232] | 67.3 nM
32 | Cc1ccc(-n2nc3c(c2C(=O)NS(C)(=O)=O)C(=O)N[C@@]2(CCc4cc(OCC(F)(F)F)ccc42)C3)nc1 [II-238] | 15 nM
33 | Cc1ccc(-n2nc3c(c2C(=O)NCC(F)(F)F)C(=O)N[C@@](c2ccc(OCC(F)(F)F)cc2F)(C(F)(F)F)C3)nc1 [II-240] | 14.3 nM
34 | Cc1ccc(-n2nc3c(c2C(=O)NCC(N)=O)C(=O)N[C@@](c2ccc(OCC(F)(F)F)cc2F)(C(F)(F)F)C3)nc1 [II-241] | 24.6 nM
35 | Cc1ccc(-n2nc3c(c2C(=O)NCCS(N)(=O)=O)C(=O)N[C@@](c2ccc(OCC(F)(F)F)cc2F)(C(F)(F)F)C3)nc1 [II-242] | 25.6 nM
36 | N#Cc1ccc(-n2nc3c(c2C(=O)NCC(N)=O)C(=O)N[C@]2(CCc4cc(OCC(F)(F)F)ccc42)C3)nc1 [II-245] | 11.3 nM
37 | COCCS(=O)(=O)NC(=O)c1c2c(nn1-c1ccc(C)c(F)c1)C[C@]1(CCc3cc(OCC(F)(F)F)ccc31)NC2=O [II-247] | 48.4 nM
38 | Cc1ccc(-n2nc3c(c2C(=O)NCC2(CO)CC2)C(=O)N[C@@]2(CCOc4cc(OCC(F)(F)F)ccc42)C3)nc1 [II-249] | 13.4 nM
39 | Cc1cc(-n2nc3c(c2C(=O)NCC#N)C(=O)N[C@@]2(CCc4cc(OCC(F)(F)F)ccc42)C3)no1 [II-251] | 10.1 nM
40 | Cc1cc(-n2nc3c(c2C(=O)NCC(F)(F)F)C(=O)N[C@@]2(CCc4cc(OCC(F)(F)F)ccc42)C3)no1 [II-252] | 22.6 nM
41 | Cc1cc(-n2nc3c(c2C(=O)NCCS(N)(=O)=O)C(=O)N[C@@]2(CCc4cc(OCC(F)(F)F)ccc42)C3)no1 [II-254] | 45.7 nM

Now from value to compound:

Row | IC50 | Compound
42 | 5.01 nM | N#Cc1ccc(-n2nc3c(c2C(=O)NC2CC(F)(F)C2)C(=O)N[C@@]2(CCc4cc(OCC(F)(F)F)ccc42)C3)nc1 [II-188]
43 | 3.06 nM | N#Cc1ccc(-n2nc3c(c2C(=O)NC2CS(=O)(=O)C2)C(=O)N[C@@]2(CCc4cc(OCC(F)(F)F)ccc42)C3)nc1 [II-189]
44 | 3.48 nM | N#Cc1ccc(-n2nc3c(c2C(=O)NCC2(C(F)F)CC2)C(=O)N[C@@]2(CCc4cc(OCC(F)(F)F)ccc42)C3)nc1 [II-192]
45 | 1.55 nM | CS(=O)(=O)CC(=O)Nc1c2c(nn1CCCOC(F)F)C[C@@]1(CCc3cc(OCC(F)(F)F)ccc31)NC2=O [II-194]
46 | 4.18 nM | Cc1ccc(-n2nc3c(c2C(=O)NCC2(CO)CC2)C(=O)N[C@@]2(CCc4cc(OCC(F)(F)F)ccc42)C3)nc1 [II-198]
47 | 2.29 nM | Cc1ccc(-n2nc3c(c2C(=O)NCC2(O)CC2)C(=O)N[C@@]2(CCc4cc(OCC(F)(F)F)ccc42)C3)nc1 [II-200]
48 | 3.78 nM | Cc1cc(-n2nc3c(c2NC(=O)CS(C)(=O)=O)C(=O)N[C@@]2(CCc4cc(OCC(F)(F)F)ccc42)C3)nn1C [II-205]
49 | 5.72 nM | Cc1ccc(-n2nc3c(c2NC(=O)CS(C)(=O)=O)C(=O)N[C@](C)(c2ccc(OCC(F)F)cc2F)C3)nc1 [II-206]
50 | 3.09 nM | Cc1ccc(-n2nc3c(c2NC(=O)CS(C)(=O)=O)C(=O)N[C@](C)(c2ccc(OCC(C)(F)F)cc2F)C3)nc1 [II-208]
51 | 2.21 nM | CS(=O)(=O)CC(=O)Nc1c2c(nn1-c1ccc(F)c(F)c1)C[C@]1(CCOc3cc(C4CC4)ccc31)NC2=O [II-224]
52 | 5.49 nM | Cc1ccc(-n2nc3c(c2NC(=O)CS(C)(=O)=O)C(=O)N[C@@]2(CCc4cc(C(F)(F)F)ccc42)C3)nn1 [II-234]
53 | 1.17 nM | Cc1cc(-n2nc3c(c2NC(=O)CS(C)(=O)=O)C(=O)N[C@@]2(CCOc4cc(C5CC5)ccc42)C3)no1 [II-235]
54 | 5.34 nM | CC(C)(F)COc1ccc2c(c1)CC[C@@]21Cc2nn(CCCOC(F)(F)F)c(NC(=O)CS(C)(=O)=O)c2C(=O)N1 [II-236]
55 | 3.43 nM | CS(=O)(=O)CC(=O)Nc1c2c(nn1CCCOC(F)(F)F)C[C@@]1(CCc3cc(OCC(F)(F)C(F)F)ccc31)NC2=O [II-237]
56 | 4.62 nM | Cc1ccc(-n2nc3c(c2C(=O)NCC#N)C(=O)N[C@@](c2ccc(OCC(F)(F)F)cc2F)(C(F)(F)F)C3)nc1 [II-239]
57 | 1.74 nM | N#CCNC(=O)c1c2c(nn1-c1ccc(C#N)cn1)C[C@@]1(CCc3cc(OCC(F)(F)F)ccc31)NC2=O [II-243]
58 | 4.81 nM | N#Cc1ccc(-n2nc3c(c2C(=O)NCC(F)(F)F)C(=O)N[C@]2(CCc4cc(OCC(F)(F)F)ccc42)C3)nc1 [II-244]
59 | 3.73 nM | N#Cc1ccc(-n2nc3c(c2C(=O)NCCS(N)(=O)=O)C(=O)N[C@]2(CCc4cc(OCC(F)(F)F)ccc42)C3)nc1 [II-246]
60 | 1.8 nM | Cc1ccc(-n2nc3c(c2NC(=O)CS(C)(=O)=O)C(=O)N[C@@]2(CCOc4cc(OCC(F)(F)F)ccc42)C3)cc1F [II-248]
61 | 3.91 nM | CS(=O)(=O)CC(=O)Nc1c2c(nn1-c1ccc(F)c(F)c1)C[C@]1(CCOc3cc(Cl)ccc31)NC2=O [II-250]
62 | 4.28 nM | Cc1cc(-n2nc3c(c2C(=O)NCC(N)=O)C(=O)N[C@@]2(CCc4cc(OCC(F)(F)F)ccc42)C3)no1 [II-253]
63 | 2.74 nM | CC(F)(F)COc1ccc2c(c1)CC[C@@]21Cc2nn(CCCOC(F)(F)F)c(NC(=O)CS(C)(=O)=O)c2C(=O)N1 [II-255]
64 | 5.26 nM | CS(=O)(=O)CC(=O)Nc1c2c(nn1-c1cc(C(F)(F)F)on1)C[C@]1(CCOc3cc(OCC(F)(F)F)ccc31)NC2=O [II-256]

— patent US11198695B2, “Fused ring derivative having MGAT-2 inhibitory activity” (Shionogi & Co., Ltd., priority 2017, dated 2021)
